Source: US12595253B2, “Benzamides of pyrazolylamino-pyrimidinyl derivatives, and compositions and methods thereof” (LYNK PHARMACEUTICALS CO. LTD., priority 2019, dated 2026)

Legend:
JAK1 = biological target: T1, JAK1 (Homo sapiens, UniProt P23458); assay: JAK1 microfluidic kinase assay (Caliper EZ Reader II, FAM labeled peptide substrate); assay type: biochemical; settings: IC50 JAK1 (5 nM) (1 m MATP), JAK1 5 nM, 1 mM ATP
T1 construct: purchased Carna Biosciences
How it was run: (§1)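 Microfluidic mobility-shift kinase assay in 50 mM HEPES, 0.01% Brij35, 10 mM MgCl2, 2 mM DTT. IC50 values come from percent-inhibition curves normalised to uninhibited and enzyme-free controls.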

JAK2 = biological target: T2, JAK2 (Homo sapiens, UniProt O60674); assay: JAK2 microfluidic kinase assay (Caliper EZ Reader II, FAM labeled peptide substrate); assay type: biochemical
T2 construct: purchased Carna Biosciences
How it was run: as §1

JAK2V617F = biological target: T3, JAK2V617F (Homo sapiens, UniProt O60674, V617F); assay: JAK2V617F microfluidic kinase assay (Caliper EZ Reader II, FAM labeled peptide substrate); assay type: biochemical; settings: JAK2V617F 2.5 nM, 1 mM ATP
T3 construct: purchased Carna Biosciences
How it was run: as §1

TYK2 = biological target: T4, TYK2 (Homo sapiens, UniProt P29597); assay: TYK2 microfluidic kinase assay (Caliper EZ Reader II, FAM labeled peptide substrate); assay type: biochemical; settings: IC50 TYK2 ([…]) (1 mM ATP), TYK2 […], 1 mM ATP
T4 construct: purchased Carna Biosciences
How it was run: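 3-fold series, top 5 μM, 1% DMSO; 10 min preincubation with enzyme, RT. Buffer 50 mM HEPES/10 mM MgCl2/2 mM DTT/0.01% Brij35. Run times JAK1 120 min, JAK2 20, JAK2V617F 30, TYK2 10. Stopped with 50 mM EDTA; IC50 from % inhibition vs no-enzyme and DMSO controls.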

[1] = Liver microsomes study, Phase I stability (RLM); assay type: in vitro ADME, rat; settings: pH 7.4; rat liver microsomes 0.5 mg/mL, 1 μM test article; read-out: RLM Clint
How it was run: (§2)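 Phase I turnover was followed by LC/MS/MS of parent compound remaining at 0, 10, 30 and 90 min in NADPH-fortified rat or human microsomes, with cold acetonitrile quench. Half-life and intrinsic clearance were derived from the log-linear depletion slope and the inverse protein concentration.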

[2] = Liver microsomes study, Phase I stability (HLM); assay type: in vitro ADME, human; settings: pH 7.4; human liver microsomes 0.5 mg/mL, 1 μM test article; read-out: HLM Clint
How it was run: as §2

[3] = Rat pharmacokinetic study (intravenous and oral); assay type: in vivo; settings: male, plasma, Sprague-Dawley rats, intravenous, 1 mg/kg, solution
Protocol: Pharmacokinetic profile of test articles in rodent were evaluated in fasted male ICR mouse and Sprague-Dawley rats. […] Typically, mice were dosed with 2 mg/kg and 10 mg/kg by intravenous injection and oral gavage, respectively. Rats were dosed with 1 mg/kg and 5 mg/kg by intravenous injection and oral gavage, respectively. Beagle dogs were dosed with 1 mg/kg and 5 mg/kg by intravenous injection and oral gavage, respectively. After dosing, blood samples were collected at each time point. For IV injection group, time points were set at 5, 15, 30 min, and then 1, 2, 4, 8 and 24 hours after dosing. For oral gavage group, timepoints were set at 15, 30 m, and then 1, 2, 4, 8, and 24 hours. Blood was collected into appropriately labeled tubes containing K2EDTA as the anticoagulant. Plasma was obtained within 1 hours of blood collection by centrifugation at 8000×g and 4° C. for 6 minutes, and then stored at −20° C. until analyzed by LCMS/MS for quantification.

CYP1A2 = biological target: T5, CYP1A2 (Homo sapiens, UniProt P05177); assay: CYPs inhibition in pooled human liver microsomes, probe substrate Phenacetin; assay type: in vitro ADME
T5 construct: 0.2 mg/mL human liver microsomes was pre-incubated in 180 μL reaction mixture; from tissue; host or cells: pooled human liver microsomes
T5 sequence (P05177 1-516): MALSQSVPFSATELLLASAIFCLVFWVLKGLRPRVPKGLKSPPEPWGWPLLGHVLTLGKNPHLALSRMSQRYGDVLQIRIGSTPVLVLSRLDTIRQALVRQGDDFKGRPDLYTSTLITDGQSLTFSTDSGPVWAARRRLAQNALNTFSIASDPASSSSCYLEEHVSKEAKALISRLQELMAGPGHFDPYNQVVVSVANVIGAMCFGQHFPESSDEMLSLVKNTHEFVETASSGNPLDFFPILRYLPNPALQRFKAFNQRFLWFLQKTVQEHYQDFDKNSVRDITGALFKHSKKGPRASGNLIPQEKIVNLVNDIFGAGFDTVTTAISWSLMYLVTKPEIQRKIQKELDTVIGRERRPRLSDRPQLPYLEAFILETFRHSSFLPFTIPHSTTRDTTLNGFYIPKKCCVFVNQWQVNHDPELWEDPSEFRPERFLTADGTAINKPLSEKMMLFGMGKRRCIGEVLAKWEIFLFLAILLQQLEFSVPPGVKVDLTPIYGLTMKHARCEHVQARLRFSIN
Protocol: (§3) The inhibitory potential of test articles in pooled human liver microsomes was evaluated by the method using a cocktail of CYP substrates. […] For the negative control well, the test articles was replaced with 20 μL reaction buffer. After 10 min of pre-incubation at 37° C., 20 μL 10 mM NADPH cofactor was added to the pre-reaction mixtures. After another 10 min incubation, the reaction was stopped by adding 400 μL of ice cold acetonitrile solution containing tolbutamide and labetalol served as internal standards. The incubation mixtures were centrifuged at 4000×g for 20 min, and then the supernatants were analyzed by LC-MS/MS after dilution. SigmaPlot was applied to plot % control activity versus the test compound concentrations, and for non-linear regression analysis of the data. IC50 values of test articles were determined using 3-parameter logistic equation.

CYP2C9 = biological target: T6, CYP2C9 (Homo sapiens, UniProt P11712); assay: CYPs inhibition in pooled human liver microsomes, probe substrate Diclofenac; assay type: in vitro ADME
T6 construct: 0.2 mg/mL human liver microsomes was pre-incubated in 180 μL reaction mixture; from tissue; host or cells: pooled human liver microsomes
Protocol: as §3

CYP2C19 = biological target: T7, CYP2C19 (Homo sapiens, UniProt P33261); assay: CYPs inhibition in pooled human liver microsomes, probe substrate S-mephenytoin; assay type: in vitro ADME
T7 construct: 0.2 mg/mL human liver microsomes was pre-incubated in 180 μL reaction mixture; from tissue; host or cells: pooled human liver microsomes
Protocol: as §3

CYP2D6 = biological target: T8, CYP2D6 (Homo sapiens, UniProt P10635); assay: CYPs inhibition in pooled human liver microsomes, probe substrate Dextromethorphan; assay type: in vitro ADME
T8 construct: 0.2 mg/mL human liver microsomes was pre-incubated in 180 μL reaction mixture; from tissue; host or cells: pooled human liver microsomes
Protocol: as §3

CYP3A4 = biological target: T9, CYP3A4 (Homo sapiens, UniProt P08684); assay: CYPs inhibition in pooled human liver microsomes, probe substrate Midazolam; assay type: in vitro ADME
T9 construct: 0.2 mg/mL human liver microsomes was pre-incubated in 180 μL reaction mixture; from tissue; host or cells: pooled human liver microsomes
Protocol: as §3

[4] = IC50 JAK2 ([…]) (Km ATP), Km ATP
[5] = IC50 JAK2 ([…]) (1 mM ATP), 1 mM ATP

T2 sequence (O60674 whole entry): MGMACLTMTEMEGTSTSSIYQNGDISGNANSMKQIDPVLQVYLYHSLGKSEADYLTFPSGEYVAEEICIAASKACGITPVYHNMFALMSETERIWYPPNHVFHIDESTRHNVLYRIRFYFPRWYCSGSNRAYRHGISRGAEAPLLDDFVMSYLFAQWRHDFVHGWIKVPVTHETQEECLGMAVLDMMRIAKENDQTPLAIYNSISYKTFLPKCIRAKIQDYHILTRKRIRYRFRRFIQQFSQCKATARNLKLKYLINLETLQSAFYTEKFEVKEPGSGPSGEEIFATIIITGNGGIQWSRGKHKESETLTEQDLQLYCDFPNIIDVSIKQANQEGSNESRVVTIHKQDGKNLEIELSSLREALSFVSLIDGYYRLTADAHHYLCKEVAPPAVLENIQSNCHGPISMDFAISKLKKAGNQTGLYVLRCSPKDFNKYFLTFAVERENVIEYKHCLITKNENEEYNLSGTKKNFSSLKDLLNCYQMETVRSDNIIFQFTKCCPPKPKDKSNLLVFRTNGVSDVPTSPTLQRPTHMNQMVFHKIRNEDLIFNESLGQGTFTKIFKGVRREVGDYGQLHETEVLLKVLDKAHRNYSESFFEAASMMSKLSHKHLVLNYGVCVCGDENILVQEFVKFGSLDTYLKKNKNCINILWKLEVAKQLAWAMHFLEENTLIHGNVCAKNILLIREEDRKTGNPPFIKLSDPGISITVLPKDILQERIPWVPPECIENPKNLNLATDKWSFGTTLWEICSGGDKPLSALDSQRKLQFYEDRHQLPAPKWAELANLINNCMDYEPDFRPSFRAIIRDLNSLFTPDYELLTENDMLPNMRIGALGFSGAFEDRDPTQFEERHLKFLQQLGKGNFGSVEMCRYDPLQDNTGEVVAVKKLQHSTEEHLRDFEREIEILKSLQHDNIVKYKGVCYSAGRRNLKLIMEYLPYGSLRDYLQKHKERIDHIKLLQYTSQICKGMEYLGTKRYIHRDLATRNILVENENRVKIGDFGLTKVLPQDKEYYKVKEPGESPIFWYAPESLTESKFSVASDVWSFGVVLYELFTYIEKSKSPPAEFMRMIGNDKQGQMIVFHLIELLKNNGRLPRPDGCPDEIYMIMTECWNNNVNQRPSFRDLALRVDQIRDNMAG
T9 sequence (P08684 whole entry): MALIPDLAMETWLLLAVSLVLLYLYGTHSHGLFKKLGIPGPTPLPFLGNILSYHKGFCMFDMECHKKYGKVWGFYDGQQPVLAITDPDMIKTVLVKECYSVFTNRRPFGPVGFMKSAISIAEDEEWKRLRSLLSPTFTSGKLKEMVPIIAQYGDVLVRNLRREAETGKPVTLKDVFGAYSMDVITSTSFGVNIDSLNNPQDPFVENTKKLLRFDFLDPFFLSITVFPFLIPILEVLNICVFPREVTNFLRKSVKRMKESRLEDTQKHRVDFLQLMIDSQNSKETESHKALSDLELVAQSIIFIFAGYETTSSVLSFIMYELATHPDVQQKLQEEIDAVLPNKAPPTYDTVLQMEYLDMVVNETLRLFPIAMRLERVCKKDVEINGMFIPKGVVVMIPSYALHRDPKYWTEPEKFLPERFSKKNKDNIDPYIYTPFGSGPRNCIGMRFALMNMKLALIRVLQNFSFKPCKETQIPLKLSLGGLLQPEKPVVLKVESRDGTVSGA
T1 sequence (P23458 whole entry): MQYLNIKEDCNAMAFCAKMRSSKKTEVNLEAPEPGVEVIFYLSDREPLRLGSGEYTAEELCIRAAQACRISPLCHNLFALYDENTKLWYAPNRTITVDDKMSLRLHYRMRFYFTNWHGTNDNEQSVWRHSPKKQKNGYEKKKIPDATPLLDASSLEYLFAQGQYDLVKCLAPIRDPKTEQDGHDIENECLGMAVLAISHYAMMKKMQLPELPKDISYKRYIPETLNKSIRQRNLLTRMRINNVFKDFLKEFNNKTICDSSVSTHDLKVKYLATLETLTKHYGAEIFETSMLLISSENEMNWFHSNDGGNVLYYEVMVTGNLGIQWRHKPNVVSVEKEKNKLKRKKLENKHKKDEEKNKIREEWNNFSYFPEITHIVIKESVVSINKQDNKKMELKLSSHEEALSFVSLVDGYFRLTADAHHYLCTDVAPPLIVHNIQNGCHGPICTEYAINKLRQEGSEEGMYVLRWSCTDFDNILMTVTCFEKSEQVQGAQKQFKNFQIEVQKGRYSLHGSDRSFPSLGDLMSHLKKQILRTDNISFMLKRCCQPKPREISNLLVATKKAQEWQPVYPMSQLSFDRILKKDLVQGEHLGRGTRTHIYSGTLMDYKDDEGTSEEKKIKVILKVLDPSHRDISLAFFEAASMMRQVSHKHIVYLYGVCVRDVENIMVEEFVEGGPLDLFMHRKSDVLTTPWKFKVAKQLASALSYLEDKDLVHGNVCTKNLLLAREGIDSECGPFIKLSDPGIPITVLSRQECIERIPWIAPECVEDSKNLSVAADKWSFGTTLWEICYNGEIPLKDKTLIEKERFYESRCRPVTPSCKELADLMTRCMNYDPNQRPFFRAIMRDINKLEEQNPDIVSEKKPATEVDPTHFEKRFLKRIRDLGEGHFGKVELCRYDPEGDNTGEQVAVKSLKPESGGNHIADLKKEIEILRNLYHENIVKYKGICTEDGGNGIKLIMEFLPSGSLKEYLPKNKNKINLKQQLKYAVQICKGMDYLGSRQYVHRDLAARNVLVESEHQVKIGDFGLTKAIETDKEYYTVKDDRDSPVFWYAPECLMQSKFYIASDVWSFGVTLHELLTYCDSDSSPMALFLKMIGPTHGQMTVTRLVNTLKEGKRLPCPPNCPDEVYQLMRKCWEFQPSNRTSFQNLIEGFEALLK
T8 sequence (P10635 whole entry): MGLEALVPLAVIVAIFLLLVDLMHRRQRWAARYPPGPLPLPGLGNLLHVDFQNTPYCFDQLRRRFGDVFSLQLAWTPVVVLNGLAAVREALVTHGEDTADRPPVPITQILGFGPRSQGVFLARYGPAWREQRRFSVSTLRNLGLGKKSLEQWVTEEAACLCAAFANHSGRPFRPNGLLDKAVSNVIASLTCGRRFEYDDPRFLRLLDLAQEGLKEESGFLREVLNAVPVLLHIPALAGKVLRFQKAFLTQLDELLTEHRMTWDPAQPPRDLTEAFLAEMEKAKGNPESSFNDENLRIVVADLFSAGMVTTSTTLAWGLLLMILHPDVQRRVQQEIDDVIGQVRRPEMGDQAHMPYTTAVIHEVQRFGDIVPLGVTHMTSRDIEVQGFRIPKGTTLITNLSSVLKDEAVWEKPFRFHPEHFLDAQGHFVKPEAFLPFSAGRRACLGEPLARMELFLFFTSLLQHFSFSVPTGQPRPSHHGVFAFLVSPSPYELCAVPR
T7 sequence (P33261 whole entry): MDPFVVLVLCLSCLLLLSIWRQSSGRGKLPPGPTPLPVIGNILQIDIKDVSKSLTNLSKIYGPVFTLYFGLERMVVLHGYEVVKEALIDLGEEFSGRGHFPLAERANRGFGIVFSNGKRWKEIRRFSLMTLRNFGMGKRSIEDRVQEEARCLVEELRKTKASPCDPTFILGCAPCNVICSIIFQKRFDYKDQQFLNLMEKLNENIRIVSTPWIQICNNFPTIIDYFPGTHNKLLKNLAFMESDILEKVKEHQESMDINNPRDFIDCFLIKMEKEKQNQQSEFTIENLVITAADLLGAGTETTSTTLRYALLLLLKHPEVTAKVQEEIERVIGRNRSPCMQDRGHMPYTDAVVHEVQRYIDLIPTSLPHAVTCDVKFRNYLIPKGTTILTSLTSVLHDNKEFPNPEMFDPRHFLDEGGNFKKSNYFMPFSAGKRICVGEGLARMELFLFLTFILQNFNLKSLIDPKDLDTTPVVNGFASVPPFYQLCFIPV
T3 sequence (O60674 whole entry V617F): as the sequence (O60674 whole entry) above, with V617F counted along it
T4 sequence (P29597 whole entry): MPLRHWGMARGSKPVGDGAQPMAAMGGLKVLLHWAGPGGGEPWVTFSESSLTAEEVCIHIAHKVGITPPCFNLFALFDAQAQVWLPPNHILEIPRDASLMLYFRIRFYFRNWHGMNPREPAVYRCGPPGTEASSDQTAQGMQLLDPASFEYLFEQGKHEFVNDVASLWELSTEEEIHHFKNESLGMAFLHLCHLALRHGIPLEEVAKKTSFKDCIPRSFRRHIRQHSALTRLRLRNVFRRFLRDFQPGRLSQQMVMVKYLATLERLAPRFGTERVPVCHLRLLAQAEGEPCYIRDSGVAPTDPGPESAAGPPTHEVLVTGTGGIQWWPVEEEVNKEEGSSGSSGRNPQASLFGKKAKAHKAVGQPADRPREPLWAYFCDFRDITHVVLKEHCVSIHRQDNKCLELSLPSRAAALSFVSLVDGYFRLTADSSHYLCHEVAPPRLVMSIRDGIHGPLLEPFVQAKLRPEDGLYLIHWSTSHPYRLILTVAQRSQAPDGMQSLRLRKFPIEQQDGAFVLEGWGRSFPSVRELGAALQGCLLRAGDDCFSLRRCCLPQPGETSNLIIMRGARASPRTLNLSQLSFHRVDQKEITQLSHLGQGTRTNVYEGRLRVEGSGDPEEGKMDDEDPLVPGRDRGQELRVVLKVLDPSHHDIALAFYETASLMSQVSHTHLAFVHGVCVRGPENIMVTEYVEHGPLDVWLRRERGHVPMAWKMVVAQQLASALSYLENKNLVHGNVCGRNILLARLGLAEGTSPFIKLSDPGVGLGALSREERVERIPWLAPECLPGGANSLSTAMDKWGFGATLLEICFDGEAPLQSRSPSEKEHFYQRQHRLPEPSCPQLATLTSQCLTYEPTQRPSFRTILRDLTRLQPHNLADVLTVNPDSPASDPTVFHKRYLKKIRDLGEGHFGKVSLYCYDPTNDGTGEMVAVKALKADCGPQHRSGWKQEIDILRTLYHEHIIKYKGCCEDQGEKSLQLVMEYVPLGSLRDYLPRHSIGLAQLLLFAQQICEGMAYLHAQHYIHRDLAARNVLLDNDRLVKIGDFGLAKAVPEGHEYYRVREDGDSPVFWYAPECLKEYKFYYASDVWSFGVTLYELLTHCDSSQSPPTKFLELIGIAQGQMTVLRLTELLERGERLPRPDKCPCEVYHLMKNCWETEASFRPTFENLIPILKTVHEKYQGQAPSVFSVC

## Cc1cnc(Nc2cnn(C)c2)nc1-c1ccc(C(=O)N[C@@H](C)C#N)cc1 [Example 18, (S)—N-(1-Cyanoethyl)-4-(5-methyl-2-((1-methyl-1H-pyrazol-4-yl)amino)pyrimidin-4-yl)benzamide]
JAK1
  IC50: 10 nM
JAK2; [4]
  IC50: 0.85 nM
JAK2V617F
  IC50: 53 nM
TYK2
  IC50: 49.6 nM
[1]
  microsomal CLint at 1 μM: 23.3 µL/min/mg
[2]
  microsomal CLint at 1 μM: 11 µL/min/mg
[3]
  AUC: 504 ng·h/mL
  Vd: 1.4 L/kg
  clearance: 33.1 mL/min/kg
  half-life: 28.8 min

## Cc1cnc(Nc2cnn(C3CCOCC3)c2)nc1-c1ccc(C(=O)NCC#N)cc1 [Example 26, N-(Cyanomethyl)-4-(5-methyl-2-((1-(tetrahydro-2H-pyran-4-yl)-1H-pyrazol-4-yl)amino)pyrimidin-4-yl)benzamide]
JAK1
  IC50: 14.1 nM
JAK2; [5]
  IC50: 1.03 nM
JAK2; [4]
  IC50: 0.33 nM
JAK2V617F
  IC50: 31.1 nM
[1]
  microsomal CLint at 1 μM: 17.1 µL/min/mg
[2]
  microsomal CLint at 1 μM: 9.3 µL/min/mg
[3]
  AUC: 1060 ng·h/mL
  Vd: 0.6 L/kg
  clearance: 15.8 mL/min/kg
  half-life: 30 min

## C[C@@H](C#N)NC(=O)c1ccc(-c2nc(Nc3cnn(C4CCN(C)CC4)c3)ncc2F)cc1 [Example 50, (S)—N-(1-cyanoethyl)-4-(5-fluoro-2-((1-(1-methylpiperidin-4-yl)-1H-pyrazol-4-yl)amino)pyrimidin-4-yl)benzamide]
JAK1
  IC50: 91.2 nM
JAK2; [5]
  IC50: 110 nM
JAK2V617F
  IC50: 186 nM
TYK2
  IC50: 218 nM
CYP1A2
  IC50: > 50 µM
CYP2C9
  IC50: > 50 µM
CYP2C19
  IC50: > 50 µM
CYP2D6
  IC50: > 50 µM
CYP3A4
  IC50: > 50 µM
[2]
  microsomal CLint at 1 μM: 8.92 µL/min/mg

## CC[C@@H](C#N)NC(=O)c1ccc(-c2nc(Nc3cnn(CC#N)c3)ncc2C)cc1 [Example 55, (S)-4-(2-((1-(cyanomethyl)-1H-pyrazol-4-yl)amino)-5-methylpyrimidin-4-yl)-N-(1-cyanopropyl)benzamide]
JAK1
  IC50: 4.33 nM
JAK2; [5]
  IC50: 48.7 nM
TYK2
  IC50: 48.2 nM
CYP1A2
  IC50: 44.8 µM
CYP2C9
  IC50: > 50 µM
CYP2C19
  IC50: > 50 µM
CYP2D6
  IC50: 19 µM
CYP3A4
  IC50: 21.5 µM

## Cc1cnc(Nc2cnn(C3CCC(O)CC3)c2)nc1-c1ccc(C(=O)NCC#N)cc1 (stereo not shown) [Example 132, N-(Cyanomethyl)-4-(2-((1-(4-hydroxycyclohexyl)-1H-pyrazol-4-yl)amino)-5-methylpyrimidin-4-yl)benzamide]
JAK1
  IC50: 6.44 nM
JAK2; [5]
  IC50: < 0.25 nM
JAK2V617F
  IC50: 2.89 nM
TYK2
  IC50: 20.4 nM
CYP1A2
  IC50: 24.5 µM
CYP2C9
  IC50: 5.93 µM
CYP2C19
  IC50: 10.4 µM
CYP2D6
  IC50: 1.76 µM
CYP3A4
  IC50: 31.5 µM

## CC[C@@H](C#N)NC(=O)c1ccc(-c2nc(Nc3cn[nH]c3)ncc2Cl)cc1 [Example 185, (S)-4-(2-((1H-Pyrazol-4-yl)amino)-5-chloropyrimidin-4-yl)-N-(1-cyanopropyl)benzamide]
JAK1
  IC50: 1.58 nM
JAK2; [5]
  IC50: 15.2 nM
TYK2
  IC50: 3.51 nM
CYP1A2
  IC50: 10.7 µM
CYP2C9
  IC50: 6.04 µM
CYP2C19
  IC50: 7.63 µM
CYP2D6
  IC50: 2.3 µM
CYP3A4
  IC50: 10.9 µM

## CC[C@@H](C#N)NC(=O)c1ccc(-c2nc(Nc3cnn(C(C)C(F)(F)F)c3)ncc2C)cc1 (stereo partly drawn) [Example 195, N—((S)-1-cyanopropyl)-4-(5-methyl-2-((1-(1,1,1-trifluoropropan-2-yl)-1H-pyrazol-4-yl)amino)pyrimidin-4-yl)benzamide]
JAK1
  IC50: 3.61 nM
JAK2; [5]
  IC50: 26.4 nM
JAK2V617F
  IC50: 61.1 nM
TYK2
  IC50: 5.42 nM
CYP1A2
  IC50: > 50 µM
CYP2C9
  IC50: > 50 µM
CYP2C19
  IC50: > 50 µM
CYP2D6
  IC50: 30.7 µM
CYP3A4
  IC50: > 50 µM

## Cc1cnc(Nc2cnn(CCO)c2)nc1-c1ccc(C(=O)N[C@@H](C)C#N)cc1 [Example 200, (S)—N-(1-cyanoethyl)-4-(2-((1-(2-hydroxyethyl)-1H-pyrazol-4-yl)amino)-5-methylpyrimidin-4-yl)benzamide]
JAK1
  IC50: 2.86 nM
JAK2; [5]
  IC50: 27.1 nM
TYK2
  IC50: 27.3 nM
CYP1A2
  IC50: > 50 µM
CYP2C9
  IC50: > 50 µM
CYP2C19
  IC50: > 50 µM
CYP2D6
  IC50: > 50 µM
CYP3A4
  IC50: > 50 µM

## COC[C@@H](C#N)NC(=O)c1ccc(-c2nc(Nc3cnn(C4CCN(C)CC4)c3)ncc2C)cc1 [Example 213, (R)—N-(1-Cyano-2-methoxyethyl)-4-(5-methyl-2-((1-(1-methylpiperidin-4-yl)-1H-pyrazol-4-yl)amino)pyrimidin-4-yl)benzamide]
JAK1
  IC50: 4.61 nM
JAK2; [5]
  IC50: 1.73 nM
TYK2
  IC50: 17.4 nM
CYP1A2
  IC50: > 50 µM
CYP2C9
  IC50: > 50 µM
CYP2C19
  IC50: > 50 µM
CYP2D6
  IC50: 19.4 µM
CYP3A4
  IC50: > 50 µM

## Cc1cnc(Nc2cnn(CCO)c2)nc1-c1ccc(C(=O)N[C@H](C#N)C2CC2)cc1 [Example 215, (S)—N-(cyano(cyclopropyl)methyl)-4-(2-((1-(2-hydroxyethyl)-1H-pyrazol-4-yl)amino)-5-methylpyrimidin-4-yl)benzamide]
JAK1
  IC50: 5.7 nM
JAK2; [5]
  IC50: 41 nM
TYK2
  IC50: 28 nM
CYP1A2
  IC50: > 50 µM
CYP2C9
  IC50: > 50 µM
CYP2C19
  IC50: > 50 µM
CYP2D6
  IC50: > 50 µM
CYP3A4
  IC50: > 50 µM
